From US20050175719A1, “Procyanidins for treatment and prevention of enzymatic irritation to the skin” (priority 2004, published 2005) come the findings set out here.

This assay concerns trypsin. Put plainly: Inhibition of trypsin-induced cleavage of fluorescent BODIPY FL casein (EnzChek protease assay kit). Format: biochemical. The source says: The procedure of Example 1 was independently repeated using the procyanidin-containing grape seed extract and STI, respectively, at 0.1% concentration. In addition, the procedure of Example 1 was repeated on the five individual monomer units typically found in OPC, at up to three different concentration levels.

Where [1] appears, read: Table 4, concentration (w/w) 0.1 %.
Setting [2] is: Table 4, concentration (w/w) 1 %.
Where [3] appears, read: Table 4, concentration (w/w) 2.5 %.

For the compound `Oc1cc(O)c2c(c1)OC(c1ccc(O)c(O)c1)C(O)C2` (racemic) [Catechin (+/−)], the “% trypsin inhibition” value is, setting by setting: under setting [1], 4.6%; under setting [2], 61%; under setting [3], 76%.
Take `Oc1cc(O)c2c(c1)OC(c1ccc(O)c(O)c1)C(O)C2` (stereo not drawn) [Catechin (+)]: the “% trypsin inhibition” value is, setting by setting: under setting [1], 11%; under setting [2], 72%; under setting [3], 89%.
With `Oc1cc(O)c2c(c1)O[C@@H](c1ccc(O)c(O)c1)[C@@H](O)C2` [Epicatechin (+)], the “% trypsin inhibition” value under setting [1] was 22%.
Turning to `Oc1cc(O)c2c(c1)O[C@H](c1ccc(O)c(O)c1)[C@H](O)C2` [Epicatechin (−)], the “% trypsin inhibition” value reads like this: under setting [2], 71%; under setting [3], 90%.
On to `O=C1O[C@H]([C@@H](O)CO)C(O)=C1O` [Vit C, Vitamin C], for which the “trypsin inhibition activity (in words)” value (at concentrations up to 0.1%) was “no trypsin inhibition activity”. Moreover, the “% trypsin inhibition” value is listed as −2% (concentration 0.001 % (w/w)), 1% (concentration 0.01 % (w/w)) and −12% (concentration 0.05 % (w/w)).
In the case of Catechin (−), the “% trypsin inhibition” value by setting is: under setting [1], 18%; under setting [2], 70%; under setting [3], 92%.
